Assay: Inhibition of AP-1/NF-kappaB transfected in human jurkat T cells assessed as inhibition of transcriptional activation
Assay type: cell-based

IC50 [nM] | SMILES
4000 | CCOC(=O)c1cnc(-c2cc3ccccc3s2)nc1NN1C(=O)C=C(C)C1=O
10000 | CCOC(=O)c1cnc(CC)nc1N(C)N1C(=O)C=C(C)C1=O
7000 | CCOC(=O)c1cnc(-c2cccc([N+](=O)[O-])c2)nc1NN1C(=O)C=C(C)C1=O
2000 | CCOC(=O)c1cnc(-c2cc(Cl)nc(Cl)c2)nc1NN1C(=O)C=C(C)C1=O
10000 | CCOC(=O)c1cnc(C(F)(F)F)nc1NN1C(=O)C(C)=C(C)C1=O
200 | CC1=CC(=O)N(Nc2nc(-c3cccs3)ncc2-c2nnn(C)n2)C1=O
1000 | CCOC(=O)c1cnc(C2CC2)nc1NN1C(=O)C=C(C)C1=O
1000 | CCOC(=O)c1cnc(C(F)(F)F)nc1NN1C(=O)C=C(C)C1=O
200 | CC1=CC(=O)N(Nc2nc(C(F)(F)F)nc3cc(N4CCCCC4)ccc23)C1=O
30 | COc1ccc2nc(C(F)(F)F)nc(NN3C(=O)C=C(C)C3=O)c2c1
2000 | CCOC(=O)c1cnc(-c2ccccc2)nc1N(C)N1C(=O)C=C(C)C1=O
400 | CCOC(=O)c1cnc(-c2ccc(C(F)(F)F)cc2)nc1NN1C(=O)C=C(C)C1=O
700 | CCOC(=O)c1cnc(-c2cccc(Br)c2)nc1NN1C(=O)C=C(C)C1=O
100 | CCOC(=O)c1cnc(-c2ccccc2)nc1NN1C(=O)C=C(C)C1=O
8 | COc1cccc2nc(-c3cccs3)nc(NN3C(=O)C=C(C)C3=O)c12 [AS-602868]
4000 | CCOC(=O)c1cnc(-c2ccccc2)nc1N(C(C)=O)N1C(=O)C=C(C)C1=O
300 | CC1=CC(=O)N(Nc2nc(-c3cccs3)ncc2-c2cc(C)no2)C1=O
6000 | CCOC(=O)c1cnc(-c2ccncc2)nc1NN1C(=O)C=C(C)C1=O
200 | CCOC(=O)c1cnc(SC)nc1NN1C(=O)C=C(C)C1=O
200 | CCOC(=O)c1cnc(C(=O)c2ccco2)nc1NN1C(=O)C=C(C)C1=O
899 | CCOC(=O)c1cnc(-c2ccc(OC)cc2)nc1NN1C(=O)C=C(C)C1=O
300 | CCOC(=O)c1cnc(-c2ccc(Cl)s2)nc1NN1C(=O)C=C(C)C1=O
15000 | CCOC(=O)c1cnc(Oc2ccccc2)nc1NN1C(=O)C=C(C)C1=O

IC50 [nM] | SMILES
10000 | CCOC(=O)c1cnc(C(F)(F)F)nc1NN1C(=O)C=CC1=O
50 | COc1cccc2c(NN3C(=O)C=C(C)C3=O)nc(-c3cccs3)nc12
20 | COc1ccc2c(NN3C(=O)C=C(C)C3=O)nc(-c3cccs3)nc2c1
20 | CC1=CC(=O)N(Nc2nc(C(F)(F)F)nc3cc(N(C)C)ccc23)C1=O
50 | COc1cc2nc(-c3cccs3)nc(NN3C(=O)C=C(C)C3=O)c2cc1OC
1000 | CCOC(=O)c1cnc(C(C)(C)C)nc1NN1C(=O)C=C(C)C1=O
3 | COc1ccc2nc(-c3cccs3)nc(NN3C(=O)C=C(C)C3=O)c2c1
50 | CC1=CC(=O)N(Nc2nc(-c3cccs3)nc3cccc(F)c23)C1=O
100 | CC1=CC(=O)N(Nc2nc(C(F)(F)F)nc3ccccc23)C1=O
300 | CCOC(=O)c1cnc(-c2cc(Cl)cc(Cl)c2)nc1NN1C(=O)C=C(C)C1=O
5000 | CC1=CC(=O)N(Nc2nc(-c3cccs3)ncc2C#N)C1=O
100 | CC1=CC(=O)N(Nc2nc(-c3ccccc3)nc3ccccc23)C1=O
10000 | CCOC(=O)c1cnc(-n2nc(C)cc2C)nc1NN1C(=O)C=C(C)C1=O
200 | CCOC(=O)c1cnc(-c2ccc(C)s2)nc1NN1C(=O)C=C(C)C1=O
1000 | CC1=CC(=O)N(Nc2nc(C(F)(F)F)nc3ccc([S+](C)[O-])cc23)C1=O (stereo not drawn)
10000 | CCOC(=O)c1cnc(-c2cnc3ccccc3c2)nc1NN1C(=O)C=C(C)C1=O
300 | CC1=CC(=O)N(Nc2nc(-c3cccs3)ncc2-c2nnc(C)o2)C1=O
10 | COc1cccc2nc(C(F)(F)F)nc(NN3C(=O)C=C(C)C3=O)c12
2000 | CCOC(=O)c1cnc(CC2=CCCCC2)nc1NN1C(=O)C=C(C)C1=O
20 | CC1=CC(=O)N(Nc2nc(-c3cccs3)nc3ccc(Cl)cc23)C1=O
20 | CC1=CC(=O)N(Nc2nc(-c3cccs3)nc3cccc(C)c23)C1=O
10000 | CCOC(=O)c1cnc(CC)nc1NN1C(=O)C=C(C)C1=O
40 | CC1=CC(=O)N(Nc2nc(-c3cccs3)nc3cc(N(C)C)ccc23)C1=O

IC50 [nM] | SMILES
7000 | CCOC(=O)c1cnc(Cc2ccccc2)nc1NN1C(=O)C=C(C)C1=O
8990 | CC1=CC(=O)N(Nc2nc(C(F)(F)F)nc3ccc(S(C)(=O)=O)cc23)C1=O
10000 | CCOC(=O)c1cnc(S(=O)(=O)c2ccccc2)nc1NN1C(=O)C=C(C)C1=O
1000 | CCOC(=O)c1cnc(-c2cccs2)nc1N(C)N1C(=O)C=C(C)C1=O
1000 | CCOC(=O)c1cnc(Sc2ccccc2)nc1NN1C(=O)C=C(C)C1=O
3000 | CCOC(=O)c1cnc(-c2ccc(F)cc2)nc1N(C)N1C(=O)C=C(C)C1=O
700 | CCOC(=O)c1cnc(-c2ccc(F)cc2)nc1NN1C(=O)C=C(C)C1=O
200 | CC1=CC(=O)N(Nc2nc(-c3cccs3)nc3cc(N4CCOCC4)ccc23)C1=O
100 | CC1=CC(=O)N(Nc2nc(C(F)(F)F)nc3ccc(O)cc23)C1=O
60 | CC1=CC(=O)N(Nc2nc(-c3cccs3)nc3ccccc23)C1=O
100 | CCOC(=O)c1cnc(-c2ccsc2)nc1NN1C(=O)C=C(C)C1=O
5000 | CCOC(=O)c1cnc(-c2cccc(OC)c2)nc1NN1C(=O)C=C(C)C1=O
200 | CC1=CC(=O)N(Nc2nc(-c3cccs3)ncc2-c2nc(C)co2)C1=O
20 | CCOC(=O)c1cnc(-c2cccs2)nc1NN1C(=O)C=C(C)C1=O
200 | CC1=CC(=O)N(Nc2nc(-c3cccs3)ncc2C2=NCCO2)C1=O
80 | CSc1ccc2nc(C(F)(F)F)nc(NN3C(=O)C=C(C)C3=O)c2c1
40 | COc1cc2c(NN3C(=O)C=C(C)C3=O)nc(-c3cccs3)nc2c(OC)c1OC
8000 | CCOC(=O)c1cnc(-c2csc(C)n2)nc1NN1C(=O)C=C(C)C1=O
16000 | CCOC(=O)c1cnc(C)nc1NN1C(=O)C=C(C)C1=O
20000 | CCOC(=O)c1cnc(C(F)(F)F)nc1NN1C(=O)C=C(c2ccccc2)C1=O
400 | CC1=CC(=O)N(Nc2nc(C(F)(F)F)nc3cccc(C)c23)C1=O
300 | CCOC(=O)c1cnc(-c2ccc(Cl)cc2)nc1NN1C(=O)C=C(C)C1=O

From ChEMBL document CHEMBL1152484, “3D-QSAR studies on the inhibitors of AP-1 and NF-kappaB mediated transcriptional activation” (Eur J Med Chem, 2009)
